Measured values reported in US11806361B2, “Treatments of non-alcoholic steatohepatitis (NASH)” (DEUTSCHES KREBSFORSCHUNGSZENTRUM STIFTUNG DES ÖFFENTLICHEN …, priority 2016, dated 2023).

Experiments:
CD-HFD fed C57BL/6 mice = assay: CD-HFD mouse model of NASH and NASH-triggered HCC; format: in vivo; conditions: for development of NASH: MRI analysis and histological analysis; for Histopathological signs of NASH (e.g. ballooned hepatocytes): H/E stains of liver; for Aberrant hepatic lipid metabolism and b-Oxidation: Real time PCR analysis for gene expression in the liver
From the text: Indeed that approach enabled the inventors to study a chronic model of NASH in the context of metabolic syndrome, triggering subsequent HCC in C57BL/6 mice, in the absence of chemical carcinogens or genetic mutations predisposing to NASH or HCC development. CD-HFD fed mice display several long term pathologies observed in human patients: abdominal obesity, overweight, insulin resistance, liver damage, production of reactive oxygen species (ROS) fibrosis, hepatic mitochondrial damage, dyslipidemia and NASH. Moreover, HCC developed 12 months post CD-HFD start and resembled histologically, genetically and morphologically human HCC (FIG. 1). Cholesterol Diet—High Fat Diet (CD-HFD) in mice recapitulates human NASH and NASH triggered HCC pathology. (FIG. 1A) Weight development in male normal diet fed (ND) and CD-HFD fed C57BL/6 mice. (FIG. 1B) Intraperitoneal Glucose tolerance test performed with 6-month-old male ND and CD-HFD C57BL/6 mice. (FIG. 1C) Quantification of serum aminotransferase (ALT) levels in male C57BL/6 mice reflecting liver damage. (FIG. 1D) MRI analyses on livers of 6-month-old ND and CD-HFD C57BL/6 mice. T1 (fast low-angle shot [FLASH]) OUT phase: dark color indicative of steatosis. T2 TurboRare visualizes increase in subcutaneous and abdominal fat and hepatic lipid accumulation (bright regions) in CD-HFD mice. (FIG. 1E) Macroscopy and histopathology of livers from 12-month-old ND, HFD, or CD-HFD C57BL/6 mice, with arrowhead pointing towards HCC. Scale bar: 5 mm. T: Tumor. NT: Non-Tumor. ***P=0.001. (F) Representative H&E staining of 12-month-old CD-HFD C57BL/6 livers and human livers illustrating NASH. Accumulation of Mallory Denk bodies (red arrowhead), ballooned hepatocytes (brown arrowhead), and satellitosis (blue arrowhead) is similar to human NASH pathology (right image). Scale bar: 50 μm.
(§1) Aspirin/Clopidrogrel (Asp/Clop), a thrombocyte aggregation inhibitor, treatment reduces the capacity of platelets aggregate and prevents NASH and aberrant hepatic lipid metabolism (FIG. 5). (FIG. 5A) Asprin/Clopidrogrel treatment reduces the number of platelets in the liver (White bars: ND; Black bars: CD-HFD; Green bars: CD-HFD treated with Asp/Clop). […] (FIG. 5E) Liver to body weight ratio is rescued upon Asp/Clop treatment at 12 months of age. (FIG. 5F) Liver damage as measured by ALT levels in serum is prevented in Asp/Clop treated mice. (FIG. 5G) Triglycerides are reduced in serum of Asp/Clop treated mice at 12 months of age. (FIG. 5H) Serum cholesterol is reduced in Asp/Clop treated mice at 6 and 12 months, (FIG. 5I) Aberrant hepatic lipid metabolism and b-Oxidation is rescued in Asp/Clop treated mice—as analyzed by Real time PCR analysis for gene expression in the liver. Stars indicate significance. […] (FIG. 5J) Lipid deposition in the liver indicated by a dark staining in the T1 (FLASH) OUT phase is not detected—as in the CD-HFD. Still at the same time abdominal and subcutaneous fat are visible in Asp/Clop treated mice. (FIG. 5K) Histopathological signs of NASH (e.g. ballooned hepatocytes—see also stars) are absent in Asp/Clop treated mice.

platelets = assay: ex vivo activation / aggregation assay on platelets taken from peripheral blood; format: cell-based; conditions: platelets taken from peripheral blood of treated CD-HFD mice
From the text: By using different dilution curves of CRP or Thr a reproducible and consistent analysis of the platelet-response rate was visible.
as §1

Row | SMILES | Liver damage as measured by ALT levels in serum (CD-HFD fed C57BL/6 mice; CD-HFD fed mice) | development of obesity (CD-HFD fed C57BL/6 mice; CD-HFD fed mice) | number of HCC (HCC incidence) (CD-HFD fed C57BL/6 mice; CD-HFD fed mice) | development of NASH (CD-HFD fed C57BL/6 mice; CD-HFD fed mice) | Histopathological signs of NASH (e.g. ballooned hepatocytes) (CD-HFD fed C57BL/6 mice) | Aberrant hepatic lipid metabolism and b-Oxidation (CD-HFD fed C57BL/6 mice) | Serum cholesterol (CD-HFD fed C57BL/6 mice; at 6 and 12 months) | Triglycerides in serum (CD-HFD fed C57BL/6 mice; at 12 months of age) | Activation status of platelets (ex vivo assay) (platelets) | Aggregation capacity status of platelets (ex vivo aggregation assay) (platelets) | insulin resistance (intraperitoneal glucose tolerance test) (CD-HFD fed C57BL/6 mice; CD-HFD fed mice) | Lipid deposition in the liver (dark staining in the T1 (FLASH) OUT phase) (CD-HFD fed C57BL/6 mice; MRI) | abdominal and subcutaneous fat (CD-HFD fed C57BL/6 mice; MRI) | Triglycerides in serum (CD-HFD fed C57BL/6 mice; at 6 or 12 months of age) | Liver to body weight ratio (CD-HFD fed C57BL/6 mice; at 12 months of age)
1 | CCCSc1nc(N[C@@H]2C[C@H]2c2ccc(F)c(F)c2)c2nnn([C@@H]3C[C@H](OCCO)[C@@H](O)[C@H]3O)c2n1 [ticagrelor, Ticagrelor] | significantly reduced | do develop obesity | No HCC | blocks NASH and HCC development | not present | rescued | significantly reduced | reduced by trend | significantly reduced | significantly reduced | – | – | – | – | –
2 | CC1=C(CC(=O)O)c2cc(F)ccc2/C1=C\c1ccc([S+](C)[O-])cc1 (centres unmarked) [sulindac, Sulindac] | not prevented | do develop obesity | – | does not prevent the development of NASH | present | not rescued | – | – | – | – | insulin resistant as CD-HFD fed mice | detected | visible | not significantly reduced | not rescued
